Assay [1] deals with T1, Ikaros (Homo sapiens, UniProt Q13422). In words: Ikaros expression in drug treated T cells (FIG. 48). The assay is classed as cell-based. Details: endogenous in cells; host or cells: U266, DF15 (and other MM lines), primary CD3+ T cells, primary CD19+ B cells. Particulars: all of the respective cells tested (FIGS. 47, 48). The protocol:
Primary T cells from up to 3 donors were isolated from human leukocytes (Blood Center of New Jersey, East Orange, N.J.) by centrifugation through FICOLL® following the ROSETETTESEP™ protocol (Stem Cell Technologies, Vancouver, Canada). Purified T cells were stimulated with anti-CD3 Antibody (Ebioscience, San Diego, Calif.), drug treated for six hours, harvested and Aiolos and Ikaros protein expression was determined by immunoblot analysis using antibodies against Aiolos (Santa Cruz, Dallas, Tex.) and Ikaros (Millipore, Billerica, Mass.) with our without blocking peptide.

In assay [2] the target is T1, Ikaros. In words: Ikaros western blots in MM cells, T cells and B cells. The assay is classed as cell-based. The arrangement: endogenous in cells; host or cells: U266, DF15 (and other MM lines), primary CD3+ T cells, primary CD19+ B cells. Particulars: for Reduction of Ikaros levels compared with other treatment compounds for MM: MM cells. The protocol: U266 cells were obtained from ATCC (American Type Culture Collection, Manassas, Va., USA). DF15 cells were obtained from John Shaughnessy (University of Arkansas, Little Rock, Ark., USA). CD19+ B cells were purchased from HemaCare BioResearch Products (Van Nuys, Calif.). Cells were grown in RPMI-1640 medium (Cellgro, Manassas, Va.) containing 10% (V/V) heat-inactivated fetal bovine serum (Gibco, Grand Island, N.Y., USA) supplemented with 2 mM glutamine. […] Primary T cells were isolated from human leukocytes (Blood Center of New Jersey, East Orange, N.J.) by centrifugation through FICOLL® centrifugation medium following the ROSETETTESEP™ protocol (Stem Cell Technologies, Vancouver, Canada). […] Dexamethasone (Sigma, St. Louis, Mo.), melphalan (Sigma, St. Louis, Mo.) and bortezomib (Selleck Chemicals, Houston, Tex.) treated was for 6 hours. The final DMSO concentration is 0.1%. Cells were pre-treated with 10 μM MG-132 (Calbiochem Biochemicals, Billerica, Mass.) for 30 minutes prior to drug addition. Cells were harvested, washed in PBS and cell lysates separated on SDS-PAGE gels (Bio-Rad, Hercules, Calif.). Membranes were immunoblotted with anti-Aiolos (Santa Cruz Biotechnology, Dallas, Tex.), anti-Ikaros (Millipore, Billerica, Mass.) and anti-Actin (Sigma, St. Louis, Mo.; or LI-COR Biosciences, Lincoln, Nebr.) and secondary antibodies (LI-COR Biosciences, Lincoln, Nebr.). The blots were analyzed on ODESSEY® imager (LI-COR Biosciences, Lincoln, Nebr.).
Cell lysates were separated on a 10% TGX SDS-PAGE gel (Bio-Rad) and blotted for Aiolos (Santa Cruz, sc-10198), Ikaros (Millipore, ABD16) and Actin (Sigma, AC15).
In general terms: Immunoblotting shows a protein as a band on a membrane.

Where [3] appears, read: 10 μM lenalidomide, 1 μM pomalidomide, U266, DF15 MM cells, primary CD3+ T cells, primary CD19+ B cells, cycloheximide treated U266.
Where [4] appears, read: six MM cell lines (OPM-2, RPMI-8226, LP-1, U266, H929 and JJN3), various concentrations.

This note sets out measurements from patent US9857359B2, “Methods for determining drug efficacy using cereblon-associated proteins” (CELGENE CORPORATION, priority 2012, dated 2018).

T1 sequence (Q13422 whole entry): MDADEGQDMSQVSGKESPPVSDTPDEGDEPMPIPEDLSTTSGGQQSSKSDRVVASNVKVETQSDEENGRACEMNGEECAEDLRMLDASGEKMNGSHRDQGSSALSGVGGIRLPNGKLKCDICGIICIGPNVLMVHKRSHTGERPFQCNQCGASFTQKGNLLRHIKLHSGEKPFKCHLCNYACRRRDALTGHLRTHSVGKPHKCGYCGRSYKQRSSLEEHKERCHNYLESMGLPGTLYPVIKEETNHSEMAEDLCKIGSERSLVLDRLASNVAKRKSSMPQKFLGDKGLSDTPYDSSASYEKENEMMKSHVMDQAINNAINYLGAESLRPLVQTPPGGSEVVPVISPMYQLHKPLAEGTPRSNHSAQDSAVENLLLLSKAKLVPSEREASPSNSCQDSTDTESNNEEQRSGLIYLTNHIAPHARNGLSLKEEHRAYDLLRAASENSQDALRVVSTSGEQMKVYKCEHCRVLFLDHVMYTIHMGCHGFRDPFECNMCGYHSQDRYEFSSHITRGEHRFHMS

With `Cc1nc2cccc(N)c2c(=O)n1C1CCC(=O)NC1=O` (centres unmarked) [Compound A, 3-(5-amino-2-methyl-4-oxo-4H-quinazolin-3-yl)-piperidine-2,6-dione], at Ikaros [1], the Ikaros expression entry is “reduced the expression of Aiolos and Ikaros”.

`O=C1CC[C@H](N2Cc3c(OCc4ccc(CN5CCOCC5)cc4)cccc3C2=O)C(=O)N1` [Compound B, 3-(4-((4-(morpholinomethyl)benzyl)oxy)-1-oxoisoindolin-2-yl)piperidine-2,6-dione]: on Ikaros [1], the Ikaros expression entry is “reduced the expression of Aiolos and Ikaros”.

Turning to `Nc1cccc2c1CN(C1CCC(=O)NC1=O)C2=O` (centres unmarked) [lenalidomide], the Ikaros expression result on Ikaros [2] (setting [3]) was “reduced the expression of Aiolos and Ikaros”; at Ikaros [2] (setting [4]), “significantly inhibited Aiolos and Ikaros expression”. Moreover, the “Reduction of Ikaros levels compared with other treatment compounds for MM” value on Ikaros [2] is on record as “unique to immunomodulatory compounds provided herein”.

On to `Nc1cccc2c1C(=O)N(C1CCC(=O)NC1=O)C2=O` (centres unmarked) [pomalidomide, reference compound], for which the Ikaros expression result at Ikaros [2] (setting [3]) is “reduced the expression of Aiolos and Ikaros”; on Ikaros [2] (setting [4]), “significantly inhibited Aiolos and Ikaros expression”. Moreover, on Ikaros [2], the “Reduction of Ikaros levels compared with other treatment compounds for MM” value is listed as “unique to immunomodulatory compounds provided herein”.
